Source: US6846925B2, “Colchinol derivatives as angiogenesis inhibitors” (Angiogene Pharmaceuticals Limited, priority 2000, dated 2005)

Assays:
tubulin = settings: O. Boye et al Med. Chem. Res., 1991, 1, 142-150; read-out: IC50 in a tubulin polymerisation assay; cited from earlier work
[1] = test system: tumour vasculature of CaNT tumours; test: Activity against tumour vasculature measured by fluorescent dye (Hoechst 33342); format: in vivo; settings: CaNT tumour-bearing mice, 50 mg/kg intraperitoneally, dye 24 hours after drug treatment
Procedure: (b) Activity Against Tumour Vasculature Measured by Fluorescent Dye
Tumour functional vascular volume in CaNT tumour-bearing mice was measured using the fluorescent dye Hoechst 33342 according to the method of Smith et al (Brit. Jnl. Cancer 1988, 57, 247-253). Five animals were used in control and treated groups. The fluorescent dye was dissolved in saline at 6.25 mg/ml and injected intravenously at 10 mg/kg 24 hours after intraperitoneal drug treatment. One minute later, animals were killed and tumours excised and frozen; 10 μm sections were cut at 3 different levels and observed under UV illumination using an Olympus microscope equipped with epifluorescence. Blood vessels were identified by their fluorescent outlines and vascular volume was quantified using a point scoring system based on that described by Chalkley, (Jnl. Natl. Cancer Inst., 1943, 4, 47-53). All estimates were based on counting a minimum of 100 fields from sections cut at the 3 different levels.

[2] = test system: Hras5 tumours (NIH 3T3 fibroblasts transfected with Harvey ras, clone 5); test: Hras5 necrosis model; format: in vivo, nude mice; settings: single dose, culled 24 hours after dosing
Procedure: NIH 3T3 fibroblasts transfected with Harvey ras, clone 5, (Hras5 cells) were kept in continual passage in Dulbecco's modifed Eagles medium (DMEM) containing 10% foetal bovine serum (FBS) and 1% glutamine, at 37° C. in a humidified incubator gassed with 7.5% carbon dioxide and […]. Cells were implanted subcutaneously into the left flank of male nude mice (8-10 weeks of age) at an inoculum of 2×10^5 cells/mouse. Tumours were measured using calipers and randomised into groups of 2-4 mice between days 9-14 after implant. Mice were dosed with compounds, either intravenously or intraperitoneally, once on day of randomisation and culled 24 hours after dosing. Compounds were dissolved in 20% hydroxypropyl beta cyclodextrin in physiological saline at pH 7 and dosed in a volume of 0.1 ml per 10 g body weight. Tumours were excised, weighed and placed in buffered formalin. Area of necrosis in individual tumours was assessed from a haematoxylin/eosin stained-slide by a pathologist and scored from 0, meaning no significant change, to 10, meaning 91-100% necrosis. The activity of examples 5 and 7 (described hereinafter) against tumour vasculature was measured by the fluorescent dye method described hereinabove. Example 1 scored 6.0 at 100 m/kg and example 4 scored 3.2 at 50 m/kg.

**Q.** What does the source list for `COc1cc2c(c(OC)c1OC)-c1ccc(N)cc1C(NC(C)=O)CC2` (stereo not shown) [N-[3-amino-9,10,11-trimethoxy-6,7-dihydro-5H-dibenzo[a,c]cyclohepten-5-yl]acetamide]?
**A.** IC50 (tubulin): 58 µM; decrease of perfused vascular volume relative to control [1]: 88%

**Q.** For `COc1ccc2c(c1)[C@@H](NC(=O)OCCOP(=O)([O-])[O-])CCc1cc(OC)c(OC)c(OC)c1-2.[Na+].[Na+]` [Example 4, 2-{N-[(5S)-3,9,10,11-tetramethoxy-6,7-dihydro-5H-dibenzo[a,c]cyclohepten-5-yl]carbamoyloxy}ethyl disodium phosphate], which “necrosis score (0 = no significant change, 10 = 91-100% necrosis)” value ([2]; 50 m/kg) is on record?
**A.** Its value is 3.2.

**Q.** With `COc1ccc2c(c1)[C@@H](NC(=O)CNC(=O)CN)CCc1cc(OC)c(OC)c(OC)c1-2` [Example 1, N-[(5S)-3,9,10,11-Tetramethoxy-6,7-dihydro-5H-dibenzo[a,c]cyclohepten-5-yl]-2-[2-aminoacetylamino]acetamide] as the molecule, how does the “necrosis score (0 = no significant change, 10 = 91-100% necrosis)” value ([2]; 100 m/kg) read?
**A.** Its value is 6.0.
